Some results are limits rather than exact numbers.

The test system of one assay is HeLa cells. Nature of the assay: Cellular SENP inhibition: SUMOylated proteins in HeLa cells by Western blot. The conditions noted are these: increasing concentrations, 48 hours. In general terms: Immunoblotting shows a protein as a band on a membrane.
The target in assay [1] is T1, SENP1 (Homo sapiens (Human), UniProt Q9P0U3). Nature of the assay: SUMO cleavage assay (gel-based), SENP1, SUMO-1 precursor YSE substrate. The conditions noted are these: cleavage of SUMO-1 precursor (YSE), read-out: IC50 (μM)-SUMO1 SENP1. It is filed as biochemical.
In assay [2] the target is T2, SENP2 (Homo sapiens (Human), UniProt Q9HC62). Nature of the assay: SUMO cleavage assay (gel-based), SENP2, SUMO-1 precursor YSE substrate. Type of assay: biochemical. To be noted: cleavage of SUMO-1 precursor (YSE), read-out: IC50 (μM)-SUMO1 SENP2.
Assay [3] deals with T1, SENP1. Nature of the assay: SUMO cleavage assay (gel-based), SENP1, SUMO-2 precursor YSE substrate. It is filed as biochemical.
In assay [4] the target is T2, SENP2. Nature of the assay: SUMO cleavage assay (gel-based), SENP2, SUMO-2 precursor YSE substrate. It is filed as biochemical. To be noted: cleavage of SUMO-2 precursor (YSE), read-out: IC50 (μM)-SUMO2 SENP2.
Assay [5] concerns the target T1, SENP1. Nature of the assay: DUB-Glo bioluminescent assay, SENP1. It is filed as biochemical. The conditions noted are these: DUB-Glo substrate.
Protocol: (§1) In 96-well plates, SENPs (50-200 nM) were pre-treated with increasing concentrations of each compound, after which DUB-Glo (40 μM final concentration; Promega, Madison, Wis.) was added as substrate. Experiments were performed in triplicate. The amount of cleaved product is proportional to the relative light unit (RLU), which is bioluminescence produced by luciferase catalyzed reaction of luciferin that was produced by SENP cleavage of DUB-Glo.
(§2) To determine whether other SENPs can be inhibited by this family of inhibitors, a distant SENP member, SENP7, was tested in parallel with SENP1 and SENP2 using a pentapeptide substrate that contained the Gly-Gly motif and luciferin, known as DUB-Glo (Promega, Madison, Wis.). Cleavage of luciferin by a SENP can be detected by a coupled bioluminescent assay using luciferase. The bioluminescent reporter was chosen instead of a fluorescent reporter to avoid interference by the compounds during detection.
(§3) DUB-Glo Assay. The luciferase substrate assay (DUB-Glo, Promega, Madison, Wis.) was performed according to the manufacturer's instructions. […] Luciferase output was recorded 30 min after addition of the luciferase substrate. […]
For assay [6], the target named is T2, SENP2. Nature of the assay: DUB-Glo bioluminescent assay, SENP2. Type of assay: biochemical. The conditions noted are these: DUB-Glo substrate.
Protocol: as §1, §2, §3
The target in the next assay is SENP7 (Homo sapiens (Human), UniProt Q9BQF6). Nature of the assay: DUB-Glo bioluminescent assay, SENP7. Type of assay: biochemical. To be noted: DUB-Glo substrate.
SENP7, sequence (Q9BQF6 760-1050): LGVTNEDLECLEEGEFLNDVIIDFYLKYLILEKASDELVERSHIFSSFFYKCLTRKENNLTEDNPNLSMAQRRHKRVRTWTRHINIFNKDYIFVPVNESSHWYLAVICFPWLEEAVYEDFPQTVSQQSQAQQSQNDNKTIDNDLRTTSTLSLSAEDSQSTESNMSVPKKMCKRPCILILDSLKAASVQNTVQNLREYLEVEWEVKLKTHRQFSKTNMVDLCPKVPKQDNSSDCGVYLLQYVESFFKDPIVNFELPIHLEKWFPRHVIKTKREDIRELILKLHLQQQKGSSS

T2 sequence (Q9HC62 364-589): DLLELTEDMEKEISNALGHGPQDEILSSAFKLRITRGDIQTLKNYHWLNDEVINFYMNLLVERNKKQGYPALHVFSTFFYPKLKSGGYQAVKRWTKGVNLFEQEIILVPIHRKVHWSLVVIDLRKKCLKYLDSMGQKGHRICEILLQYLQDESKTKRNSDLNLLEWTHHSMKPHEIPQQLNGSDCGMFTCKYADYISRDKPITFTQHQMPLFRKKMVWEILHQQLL
T1 sequence (Q9P0U3 419-644): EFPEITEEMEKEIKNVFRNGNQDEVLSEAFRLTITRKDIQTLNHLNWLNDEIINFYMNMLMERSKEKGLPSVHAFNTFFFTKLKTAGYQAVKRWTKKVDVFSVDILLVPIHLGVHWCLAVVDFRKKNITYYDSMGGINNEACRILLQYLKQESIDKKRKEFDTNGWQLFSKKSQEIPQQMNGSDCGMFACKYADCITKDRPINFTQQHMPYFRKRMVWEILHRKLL
Protocol for SENP7: as §1, §2
DUB-Glo Assay. The luciferase substrate assay (DUB-Glo, Promega, Madison, Wis.) was performed according to the manufacturer's instructions. Briefly, SENPs (final concentration 50-100 nM) in Tris buffer (50 mM Tris, pH 8.0, 100 mM NaCl, 10 mM DTT) were pre-incubated (10 min, room temperature) with increasing concentrations of inhibitor (0-60 μM final concentration) followed by addition of the luciferase substrate. Luciferase output was recorded 30 min after addition of the luciferase substrate. Values are the averages of experiments performed in triplicate.

`Nc1ccc2ccccc2c1/N=N/c1ccc(/C=C/c2ccc(/N=N/c3c(N)ccc4ccccc34)cc2S(=O)(=O)O)c(S(=O)(=O)O)c1` [SPI-01]: in the assay on HeLa cells, the “accumulation of SUMO-1 conjugates” value was “less significant effects on the accumulation of SUMO-1 conjugates” and the “accumulation of SUMO-2/3 conjugates” value was “SUMO-2/3 conjugates accumulated in cells”.
On to `Cc1cc(N)ccc1/N=N/c1cc(S(=O)(=O)O)c2cccc(S(=O)(=O)O)c2c1.[Na+].[Na+]` [SPI-07], for which the IC50 on SENP1 [1] is more than 60 µM; at SENP2 [2], more than 60 µM; on SENP1 [3] (cleavage of SUMO-2 precursor (YSE), gel-based, read-out: IC50 (μM)-SUMO2 SENP1), 17.5 ± 4.9 µM; on SENP2 [4], 28.1 ± 9.2 µM; on SENP1 [5], more than 60 µM; against SENP2 [6] it was more than 60 µM. The same compound came in with a half-maximal inhibitory concentration (IC50) against SENP7 of 1.9 ± 2.2 µM. The “potency for inhibiting SENP1 compared with SENP2” value at SENP1 [3] (cleavage of the SUMO-2 precursor) was “more potent for inhibiting SENP1 than SENP2”.
The compound `Nc1c(/N=N/c2ccccc2)cc(S(=O)(=O)O)c2ccccc12` [SPI-08] displayed an IC50 at SENP7 of 2.8 ± 1.6 µM.
Still for that read-out and setting: with `Nc1ccc2cc(S(=O)(=O)O)cc(S(=O)(=O)O)c2c1/N=N/c1ccc(S(=O)(=O)O)cc1` [SPI-09] the figure was 1.9 ± 2.1 µM.

What is called IC50 is the midpoint of a concentration-inhibition curve.
